Experiment [1] concerns fixed activated platelets. Nature of the experiment: Platelet Aggregation Assay (fixed-activated platelets, fibrinogen-mediated aggregation). As to conditions: aggregation initiated by human fibrinogen 250 μg/ml, read-out: Inhibition of Fixed Platelet Aggregation (IC50 μM). It counts as cell-based. On the procedure:
Preparation of Fixed-Activated Platelets
Platelets are isolated from human platelet concentrates using the gel-filtration technique as described by Marguerie, G. A., et al., J. Biol. Chem. 254, 5357-5363 (1979) and Ruggeri, Z. M., et al., J. Clin. Invest. 72, 1-12 (1983). The platelets are suspended at a concentration of 2×10^8 cells/ml in a modified calcium-free Tyrode's buffer containing 127 mM sodium chloride, 2 mM magnesium chloride, 0.42 mM Na2HPO4, 11.9 mM NaHCO3, 2.9 mM KCl, 5.5 mM glucose, 10 mM HEPES, at a pH of 7.35 and 0.35% human serum albumin (HSA). These washed platelets are activated by addition of human a-thrombin at a final concentration of 2 units/ml, followed by thrombin inhibitor I-2581 at a final concentration of 40 μM. To the activated platelets is added paraformaldehyde to a final concentration of 0.50% and this incubated at room temperature for 30 minutes. The fixed activated platelets are then collected by centrifugation at 650×g for 15 minutes. The platelet pellets are washed four times with the above Tyrode's-0.35% HSA buffer and resuspended to 2×10^8 cells/ml in the same buffer.
Platelet Aggregation Assay
The fixed activated platelets are incubated with a selected dose of the compound to be tested for platelet aggregation inhibition for one minute and aggregation initiated by addition of human fibrinogen to a final concentration of 250 μg/ml. A platelet aggregation profiler Model PAP-4 is used to record the platelet aggregation. The extent of inhibition of aggregation is expressed as the percentage of the rate of aggregation observed in the absence of inhibitor.

Experiment [2] concerns ADP-induced platelet aggregation in canine platelet rich plasma. Description: Inhibition of ADP-Induced ex-vivo Platelet Aggregation after oral administration. It counts as in vivo, mongrel dogs. As to conditions: dog; for inhibition at 10 mg/kg / inhibition at 5 mg/kg: Canis lupus familiaris, Platelet. The procedure:
Inhibition of ADP-Induced ex-vivo Platelet Aggregation
Control blood samples are obtained 5-10 minutes prior to administration of the test compound in mongrel dogs weighing from 10 to 20 kg. The compound is administered intragasticly, via aqueous gavage, or orally, via gelatin capsule. Blood samples (5 ml) are then obtained at 30 minute intervals for 3 hours, and at 6, 12, and 24 hours after dosing. Each blood sample is obtained by venipuncture of the cephalic vein and is collected directly into a plastic syringe containing one part 3.8% trisodium citrate to nine parts blood.
Ex vivo Canine Platelet Aggregation
The blood samples are centrifuged at 1000 rpm for 10 minutes to obtain platelet rich plasma (PRP). After removal of the PRP, the sample is centrifuged for an additional 10 minutes at 2000 rpm to obtain platelet poor plasma (PPP). Platelet count in the PRP is determined by using a Coulter Counter (Coulter Electronics, Hialeah, Fla.). If the concentration of platelets in the PRP is greater than 300,000 platelets/μl, then the PRP is diluted with PPP to adjust the platelet count to 300,000 platelets/μl. Aliquots of PRP (250 μl) are then placed in siliconized glass cuvettes (7.25×55 mm, Bio/Data Corp, Horsham, Pa.). Epinephrine (final concentration of 1 μM) is then added to the PRP, which is incubated for one minute at 37° C. A stimulator of platelet aggregation, ADP at a final concentration of 10 μM, is then added to the PRP. Platelet aggregation is monitored spectrophotometrically utilizing a light transmission aggregometer (Bio/Data Platelet Aggregation Profiler, Model PAP-4, Bio/Data Corp, Horsham, Pa.). For compound to be tested, the rate of change (slope) of light transmittance and the maximum light transmittance (maximum aggregation) is recorded in duplicate. Platelet aggregation data are reported as the percent decrease (mean±SEM) in slope or maximum aggregation as compared to data obtained from control PRP, which is prepared from blood samples obtained prior to administration of the test compound.

The mark [3] stands for this setting: 1 h after dosing, read-out: % Inhibition of ex-vivo Platelet Aggregation After Oral Administration, 1 h.
The mark [4] stands for this setting: 3 h after dosing, read-out: % Inhibition of ex-vivo Platelet Aggregation After Oral Administration, 3 h.
Setting [5] is: dose 5 mg/kg, 1 h after dosing, read-out: % Inhibition of ex-vivo Platelet Aggregation After Oral Administration, 1 h.
[6] abbreviates: dose 5 mg/kg, 3 h after dosing, read-out: % Inhibition of ex-vivo Platelet Aggregation After Oral Administration, 3 h.
The mark [7] stands for this setting: dose 5 mg/kg, 6 h after dosing, read-out: % Inhibition of ex-vivo Platelet Aggregation After Oral Administration, 6 h.
Where [8] appears, read: dose 5 mg/kg, 12 h after dosing, read-out: % Inhibition of ex-vivo Platelet Aggregation After Oral Administration, 12 h.
Where [9] appears, read: dose 5 mg/kg, 24 h after dosing, read-out: % Inhibition of ex-vivo Platelet Aggregation After Oral Administration, 24 h.
Where [10] appears, read: fixed activated human platelets.
Setting [11] is: 6 h after dosing, read-out: % Inhibition of ex-vivo Platelet Aggregation After Oral Administration, 6 h.

SMILES strings stand for the structures. Read-outs that look alike come from different tables or passages of the source. Bounds are passed on as bounds.

This is an account of results in US6797700B2, “Antithrombotic azacycloalkylalkanoyl peptides and pseudopeptides” (Aventis Pharmaceuticals, Inc., priority 1993, dated 2004).

With `CCN(CC(=O)NC(CC(=O)O)C(=O)NC(Cc1ccccc1)C(=O)O)C(=O)CCCC1CCNCC1` (stereo not shown) [Example 3, N-[N-[N-(4-piperidin-4-yl)-N-ethylglycyl]aspartyl]phenylalanine], the IC50 in experiment [1] (Homo sapiens, Platelet) was 0.064 µM. The inhibition at 10 mg/kg was 40% in experiment [2] (setting [3]) and < 20% in experiment [2] (setting [4]).
On to `CCN(CC(=O)NC(CC(=O)O)C(=O)NC(CC1CCCCC1)C(=O)O)C(=O)CCCC1CCNCC1` (stereo not shown) [Example 1, N-[N-[N-(4-(piperidin-4-yl)butanoyl)-N-ethylglycyl]aspartyl]-b-cyclogexylalanine], for which, in experiment [1] (Homo sapiens, Platelet), the IC50 is 0.026 µM. Besides, the inhibition at 5 mg/kg in experiment [2] (setting [5]) was 100%; in experiment [2] (setting [6]), 100%; in experiment [2] (setting [7]), 100%; in experiment [2] (setting [8]), 88%; in experiment [2] (setting [9]), 42%.
For the compound `CCN(CC(=O)NC(CC(=O)O)C(=O)NC(CC1CCCC2CCCCC21)C(=O)O)C(=O)CCCC1CCNCC1` [Example 14, N-[N-[N-(4-(piperidin-4-yl)butanoyl)-N-ethylglycyl]aspartyl]-L-b-decahydronaphth-1-yl alanine], in experiment [1] (setting [10]), the IC50 is 0.019 µM. Also, the inhibition at 5 mg/kg in experiment [2] (setting [5]) came to 100%; in experiment [2] (setting [6]), 100%; in experiment [2] (setting [7]), 100%; in experiment [2] (setting [8]), 100%; in experiment [2] (setting [9]), 95%.
On to `O=C(O)C[C@H](NC(=O)CNC(=O)CCCC1CCNCC1)C(=O)N[C@@H](Cc1c[nH]c2ccccc12)C(=O)O` [Compound of EPA '481, 4-4(piperidyl)butanoyl glycyl aspartyl tryptophan, reference compound], for which the IC50 in experiment [1] (setting [10]) is 0.047 µM. In addition, the “% Inhibition of ex-vivo Platelet Aggregation After Oral Administration, 1 h” value in experiment [2] (dose 5 mg/kg, 1 h after dosing) is recorded as 53%. In addition, the “% Inhibition of ex-vivo Platelet Aggregation After Oral Administration, 3 h” value in experiment [2] (dose 5 mg/kg, 3 h after dosing) is on record as <20%.
Regarding `CCN(CC(=O)NC(CC(=O)O)C(=O)NC(C(=O)O)C(C)C)C(=O)CCCC1CCNCC1` (stereo not shown) [Example 4], the IC50 in experiment [1] (Homo sapiens, Platelet) amounted to 0.72 µM. Further, the inhibition at 10 mg/kg was 90% in experiment [2] (setting [3]), 50% in experiment [2] (setting [4]) and < 20% in experiment [2] (setting [11]).
Take `CCN(CC(=O)NC(CC(=O)O)C(=O)NC(CC(C)(C)C)C(=O)O)C(=O)CCCC1CCNCC1` (stereo not shown) [Example 5]: the IC50 in experiment [1] (Homo sapiens, Platelet) turned out to be 0.082 µM. Besides, the inhibition at 10 mg/kg was determined as 100% in experiment [2] (setting [3]), 90% in experiment [2] (setting [4]) and 35% in experiment [2] (setting [11]).
For `CCN(CC(=O)NC(CC(=O)O)C(=O)NC(Cc1cccc2ccccc12)C(=O)O)C(=O)CCCC1CCNCC1` [Example 7, N-[N-[N-(4-(piperidin-4-yl)butanoyl)-N-ethylglycyl]aspartyl]-L-b-naphth-1-yl alanine], the IC50 in experiment [1] (Homo sapiens, Platelet) amounted to 0.11 µM. The values for the inhibition at 5 mg/kg in experiment [2] (setting [5]) and in experiment [2] (setting [6]) were 30% and < 20%, respectively.
On to `CCOC(=O)C(CC1CCCCC1)NC(=O)C(CC(=O)O)NC(=O)CN(CC)C(=O)CCCC1CCNCC1` [Example 11, N-[N-[N-(4-(piperidin-4-yl)butanoyl)-N-ethylglycyl]aspartyl]-L-b-cyclohexyl alanine, ethyl ester], for which the IC50 in experiment [1] (Homo sapiens, Platelet) was found to be 0.064 µM. In addition, the inhibition at 5 mg/kg in experiment [2] (setting [5]) amounted to 100%; in experiment [2] (setting [6]), 100%; in experiment [2] (setting [7]) it was 60%; in experiment [2] (setting [8]), 37%.
Take `CCCCC(NC(=O)C(CC(=O)O)NC(=O)CN(CC)C(=O)CCCC1CCNCC1)C(=O)O` (stereo not shown) [Example 6]: the IC50 in experiment [1] (Homo sapiens, Platelet) came out at 0.13 µM. Besides, the inhibition at 10 mg/kg in experiment [2] (setting [3]) worked out at 80%; in experiment [2] (setting [4]) it was 20%.
Consider `CCN(CC(=O)NC(CC(=O)O)C(=O)NC(CC1CCCCC1)C(N)=O)C(=O)CCCC1CCNCC1` [Example 12, N-[N-[N-(4-(piperidin-4-yl)butanoyl)-N-ethylglycyl]aspartyl]-L-b-cyclohexyl alanine amide], for which, in experiment [1] (Homo sapiens, Platelet), the IC50 turned out to be 0.097 µM. In addition, the inhibition at 5 mg/kg in experiment [2] (setting [5]) came to 100%; in experiment [2] (setting [6]) it was 100%; in experiment [2] (setting [7]), 100%; in experiment [2] (setting [8]), 98%; in experiment [2] (setting [9]), 50%.

In general, IC50 refers to the concentration needed to halve the response being measured.
